Marks after values point to notes of the source that are not given here.
Experiments:
adult male Swiss mice = assay: Antispermatogenic screen: single gavage dose to male mice, testes weight and Spermatogenic Index at 72 h; format: in vivo; settings: day 3 (72 h)
Experimental: The compounds of the invention were tested in mice for their effects on spermatogenesis three days after a single oral dose by the procedure described in Cook et al (1995) below. Compounds active in this test have been shown also to be anti-fertility compounds.
Compounds were screened for antispermatogenic activity by dosing male mice on day 1 with a gavage dose of control vehicle, positive control (compound 1) or compound of the invention. At 72 h after dosing, animals were killed and the testes were excised, trimmed of fat, and weighed. One testis was examined histologically and rated for spermatogenic potential using the Spermatogenic Index (J. M. Whitsett, P. F. Noden, J. Cherry and A. D. Lawton, J. Reprod. Fertil., 72, 277 (1984), which is a semiquantitative estimate of the sperm producing ability of the testes The index is based on histological appearance of the spermatogenic cells in the seminiferous tubules. A scale of 1 to 6 is used with 5 to 6 being the normal status. A second assessment was based on the weight of the testes.
Tables 1 and 2 show pertinent biological results in terms of the change in testes weight (TW) and spermatogenic index (SI) relative to a control containing only the administration vehicle, but no indenopyridine. In Tables 1 and 2, R^3 and R^4 refer to structures Ib, where R^3 is in the para position; R^1 is ethyl; R^2 is methyl; and R^5 is hydrogen.

testes = assay: Antispermatogenic activity after a single oral dose to rats; format: in vivo; settings: single oral dose of 30 mg/kg
Description: Spermatids became pycnotic, occasionally forming multinucleated associations. Sertoli cells appear to be cytologically normal. It appears that compound 1 targets spermatids or the Sertoli cell associated with these spermatids because histologic changes are observed in these spermatids first.

mice = assay: Lethargy and sedation in mice; format: in vivo
Description: Lethargy and sedation are obviously undesirable side effects in contraceptive agents. In contrast to the lethargy and sedation observed with compound 1, the compounds of the present invention produce minimal lethargy.

spermatogenesis = settings: oral administration to animals; cited from earlier work
[1] = Table 2, 30 mg/kg single gavage dose, vehicle 1% Tween20 in water
[2] = racemic compounds, 30 mg/kg single gavage dose, vehicle 90% water, 7% Tween20, 3% ethanol
[3] = racemic compounds, 3 mg/kg single gavage dose, vehicle 90% water, 7% Tween20, 3% ethanol
[4] = racemic compounds, 10 mg/kg single gavage dose, vehicle 90% water, 7% Tween20, 3% ethanol

Row | melting point | Compound | SI change (%) (Spermatogenic Index, % change from vehicle control) (adult male Swiss mice; [1]) | TW change (%) (testes weight, % change from vehicle control) (adult male Swiss mice; [1]) | SI change (%) (Spermatogenic Index, % change from vehicle control) (adult male Swiss mice; [2]) | TW change (%) (testes weight, % change from vehicle control) (adult male Swiss mice; [2]) | Testis histology (testes) | Effect on weights of the testes (testes; within 24 h) | Lethargy (mice; 30 mg/kg given subcutaneously) | Lethargy and sedation (mice; oral dose of 30 mg/kg) | Inhibition of spermatogenesis (spermatogenesis) | SI change (%) (Spermatogenic Index, % change from vehicle control) (adult male Swiss mice; [3]) | TW change (%) (testes weight, % change from vehicle control) (adult male Swiss mice; [3]) | SI change (%) (Spermatogenic Index, % change from vehicle control) (adult male Swiss mice; [4]) | TW change (%) (testes weight, % change from vehicle control) (adult male Swiss mice; [4])
1 |  | CCN1CC[C@@H]2[C@@H](c3ccc(C)cc3)c3cc(C)ccc3[C@@H]2C1 (racemic) [Compound 1, (4aRS,5SR,9bRS)-2-ethyl-2,3,4,4a,5,9b-hexahydro-7-methyl-5-(4-methylphenyl)-1H-indeno[1,2-c]pyridine] | −61%* | −24%* | −55%* | 19%* | Degenerative changes in the seminiferous tubules | drastically reducing the weights of the testes | extreme lethargy | some lethargy and sedation | reversible inhibition of spermatogenesis |  |  |  | 
2 | 169.6 to 170.3 °C | CCN1CC[C@@H]2[C@@H](c3ccc(C(=O)O)cc3)c3cc(C)c(Br)cc3[C@@H]2C1.Cl (racemic) [Compound 19, (4aRS,5SR,9bRS)-2-Ethyl-8-Bromo-7-Methyl-2,3,4,4a,5,9b-Hexahydro-5-(4-carboxylphenyl)-1H-Indeno[1,2-c]pyridine Hydrochloride] |  |  | −72%* | −39%* |  |  |  |  |  | −69%* | −8% | −71%* | −28%*
